Literature values, collected in publication PMC9328939, “A Randomized Double‐Blind Placebo‐Controlled First‐In‐Human Phase 1 Trial of TransCon PTH in Healthy Adults” (Journal of Bone and Mineral Research, 2020).

Legend:
[1] = system: PTH/PTHrP receptor; conditions: stated without data; no reference given; cited from earlier work
[2] = system: healthy volunteers; conditions: sCa raised comparably to a calcium clamp (10.3 mg/dL; FECa 6.0% to 7.0%) by infusion of PTHrP(1-36); cited from earlier work
From the text: TransCon PTH may also positively impact hypercalciuria, a major cause of morbidity in patients with HP.

[3] = short-acting PTH(1-84); cited from earlier work
From the text: The TransCon PTH bone turnover data are similar to the published literature, which illustrate that continuous PTH administration is not anabolic. […] TransCon PTH did modestly and transiently increase the bone resorption marker, serum CTx, consistent with t ...

PTH(1‐33): metabolite of PTH(1-34) shortened by a single amino acid; part of Free PTH (SVSEIQLMHNLGKHLNSMERVEWLRKKLQDVHN; Parathyroid hormone; UniProt P01270 32-64, looked up, fragment)
potency at the PTH/PTHrP receptor relative to PTH(1-34) [1]: equipotency

PTHrP(1‐36): parathyroid hormone-related protein fragment infused in healthy volunteers in a literature study
FECa [2]: did not differ from normal controls

B1: PTH(1‐84): parathyroid hormone for injection, once-daily short-acting rhPTH(1-84) (protein, UniProt P01270 32-115, looked up)
Parathyroid hormone: SVSEIQLMHNLGKHLNSMERVEWLRKKLQDVHNFVALGAPLAPRDAGSQRPRKKEDNVLVESHEKSLGEADKADVNVLTKAKSQ
modifications: Parathyroid hormone
persistent increase in CTx [3]: 200%
